Assay results taken from patent US20100159030A1, “METHODS FOR DETECTING AND MODULATING THE SENSITIVITY OF TUMOR CELLS TO ANTI-MITOTIC AGENTS AND FOR MODULATING TURMORGENICITY” (NewSouth Innovations Pty Limited, priority 2007, published 2010).

Assays:
[1] = system: H460 cells; assay: Soft agar colony assay (anchorage-independent cell growth); assay type: cell-based, Human; details: vs mock or control siRNA/shRNA cells; 27-mers at 5 nM
Procedure: H460 cells were transfected with βIII-tubulin siRNA or control siRNA for 24 h as described above. Cells from each sample (1,000 cells per dish) were resuspended in 0.33% agar (37° C.) in RPMI containing 20% FCS, and plated onto 0.5% solidified agar/20% FCS/RPMI (37° C., bottom supportive layer) in 35 mm dishes. Triplicate plates were set up for each sample. The plates were placed at 4° C. for 10 min to solidify the top agar and then incubated at 37° C. in 5% CO2 for 12 days. After 12 days of culture, the colonies were counted and photographed using the Zeiss Axiovert S100 inverted microscope, 5× objective and SPOT digital camera (Thornwood, N.Y.).

[2] = system: class III β-tubulin; assay: Knockdown of class III β-tubulin expression (western blot, RT-PCR); assay type: cell-based, Human; details: H460, subculturing time course
Procedure: The effects of βIII-tubulin siRNA transfection on the gene and protein expression of the isotype, were assessed by RT-PCR and western blotting. For RT-PCR, total RNA was extracted from the transfected cells using the Trizol® reagent (Invitrogen), according to the manufacturer's instructions. RNA samples were DNAse-treated, reverse transcribed for RT-PCR analysis using methodology and specific primers as described in detail previously (Kavallaris et al. (1997) J Clin Invest 100, 1282-1293). B eta-2-micro globulin (β2M) was used as an internal mRNA control. Preparation of protein lysates and Western blot analysis were performed as follows. […] Primary antibodies were detected using horseradish peroxidase-linked secondary antibody (Amersham Pharmacia Biotech, Uppsala, Sweden) and enhanced chemiluminescence (GE Healthcare, Uppsala, Sweden) was used for detection. The blots were scanned using the Typhoon® scanner and quantified using ImageQuant® software version 5.2 (Molecular Dynamics Inc, Sunnyvale, Calif.). […]

[3] = system: NSCLC H460 cells; assay: Drug-treated clonogenic assay (surviving fraction, ID50) on siRNA/shRNA-transfected cells; assay type: cell-based, Human; details: for RS (relative sensitivity): Table 3
Procedure: Cells were transfected for 24 h and approximately 600 cells (for Calu-6) or 150 cells (for H460) were seeded into each well of a 6-well plate and allowed to attach for 4-6 h. The cell lines used in this study were not subject to prior drug selection, and are likely to represent intrinsic drug resistance observed in lung carcinoma.
Cells were then treated with increasing concentrations of various anti-mitotic drugs. Following a 3-day incubation at 37° C., the drug-containing medium was removed and replaced with fresh complete medium. Medium was changed at 3-4 day intervals for 7 to 10 days until visible colonies formed. […] Surviving colonies were simultaneously fixed and stained with 0.5% crystal violet in methanol, rinsed with water to remove excess stain and air-dried overnight.
The colonies in each well were manually counted, and the results were presented as surviving fraction according to the formula: surviving fraction was calculated as follows: colony number/(number of cells seeded×plating efficiency), where plating efficiency is equivalent to the colony number divided by the number of cells seeded in the drug-free medium. Dose-response curves were plotted for each drug-cell line combination and inhibitory dose (ID50) values were extrapolated from this curve using GraphPad Prism program (GraphPad Software, version 4, San Diego, Calif.). ID50 was defined as the concentration of the drug required to reduce the number of colonies in drug-treated wells to 50% of that of the relevant untreated control wells. The ID50 values were the means of at least four independent experiments.
To quantitate any change in drug sensitivity, drug treated clonogenic assays were performed. Twenty-four hours after siRNA transfection, cells were harvested and plated into 6-well plates for 6 h, prior to the addition of various drugs as indicated in the figure legends. After 72 h incubation, the drug-containing media was removed and replaced with complete growth media. Medium was changed every 3 days for 7 to 10 days until visible colonies formed. Colonies were simultaneously fixed and stained with 0.5% crystal violet in methanol, and manually counted. Individual stained colonies in each well were counted and the surviving fraction was calculated as follows: colony number/(number of cells seeded×plating efficiency), where plating efficiency equals the colony number divided by the number of cells seeded in drug-free media.

[4] = system: H460 cells; assay: Apoptosis induction, Annexin V-FITC flow cytometry; assay type: cell-based, Human; details: βIII-tubulin siRNA vs control siRNA cells, 48 h; paclitaxel 1, 2, 5 nM; cisplatin 0.4 or 1 μM
Procedure: Annexin V-FITC staining followed by flow cytometry analysis was performed to address whether the increase in the sub-G1 population following exposure to tubulin-binding agents in the βIII-tubulin siRNA treated cells was related to an increase in apoptosis induction. Apoptosis induction was determined by transfecting H460 cells with siRNA for 72 h and harvesting (adherent and suspension) cells 48 h after drug treatment, as previously described in Pasquier et al., Mol Cancer Ther 2004; 3:1301-10. Briefly, 1×10^5 cells were incubated with Annexin V-FITC and propidium iodide for 15 min in the dark (Becton-Dickinson), immediately followed by flow cytometry using a FACSCalibur (Becton-Dickinson). Cytogram analysis was performed using CellQuest® software.

[5] = system: H460 cells stably expressing control or class III β-tubulin shRNA in subcutaneous tumors; assay: Nude mouse xenograft, cisplatin (CDDP) treatment of tumors from H460 shRNA clones; assay type: in vivo, BALB/c athymic nude mice; details: 3 doses CDDP 3.33 mg/kg over 3 days
Procedure: FIG. 22 is a column chart illustrating the mean number of days for tumor to reach 1000 mm^3 post-treatment with cisplatin (CDDP) or phosphate buffered saline control (PBS) in a nude mouse xenograft animal model. Graphs illustrate results for control shRNA clones 1 and 2 with and without CDDP treatment and βIII-tubulin shRNA clones 4 and 59 with and without CDDP treatment. Once tumors reached approx 300 mm3 mice were treated with 3 doses of CDDP 3.33 mg/kg over 3 days or its vehicle control (PBS). Tumors were then measured twice weekly and mice were sacrificed once tumors reached 1000 mm^3 (n=5 mice per treatment group). Mean number of days were: Control clone 1 (PBS) 15.6 days±4.95; Control clone 1 (CDDP) 13 days±4.21; Control clone 2 (PBS) 7.2 days±1.5; Control clone 2 (CDDP) 10.8 days±3.54; class III 3-tubulin shRNA clone 4 (PBS) 15.6 days±3.12; class III β-tubulin shRNA clone 4 (CDDP) 35 days±3.03; class III β-tubulin shRNA clone 59 (PBS) 15.6 days±2.11; class III β-tubulin shRNA clone 59 (CDDP) 29.4 days±3.93.
FIG. 24A is a plot of tumor volume over time in a nude mouse xenograft animal model following treatment with cisplatin (CDDP) or phosphate buffered saline control (PBS). Tumor size was plotted in mm^3 for control clone 2 with or without CDDP post-treatment and class III β-tubulin shRNA clone 4 with and without CDDP post-treatment. Once tumors reached approx 300 mm^3 mice were treated with 3 doses of CDDP (3.33 mg/kg) over 3 days or its vehicle control (PBS). Tumors were then measured twice weekly and mice sacrificed once tumors reached 1000 mm^3 FIG. 24B illustrates Kaplin Meier survival curves for tumors of two different clones with or without class III β-tubulin silencing and following CDDP or PBS vehicle treatment in vivo. Clone 2 was a control clone and clone 4 was class III β-tubulin silenced with shRNA. FIG. 24C is a plot of tumor size over time in a nude mouse xenograft animal model following treatment with cisplatin (CDDP) or phosphate buffered saline control (PBS). […] Tumors were then measured twice weekly and mice sacrificed once tumors reached 1000 mm^3 FIG. 24D illustrates Kaplin Meier survival curves for control clone 2 with and without CDDP post-treatment and for class III β-tubulin shRNA clone 59 with and without CDDP post-treatment. […]
Female BALB/c athymic nude mice (5-6 week old) were maintained under pathogen-free conditions. […] The animals were monitored twice a week from the second week post-injection for tumor formation and health status. Tumor diameter was measured twice per week using a digital caliper throughout the experiment, and tumor volume in mm^3 was calculated using the formula: Volume=(length×width×depth)/2. […]

Molecule | number of colonies in soft agar [1] | duration of class III β-tubulin protein knockdown [2] [days] | RS (relative sensitivity) ([3]; Ctrl clone 2 compared to ctrl clone 1) | RS (relative sensitivity) ([3]; βIII shRNA clone 4 compared to ctrl clone 1) | RS (relative sensitivity) ([3]; βIII shRNA clone 59 compared to ctrl clone 1) | RS (relative sensitivity) ([3]; βIII shRNA clone 60 compared to ctrl clone 1) | change in drug sensitivity (clonogenic survival) ([3]; βIII-tubulin siRNA silencing vs controls, H460) | percentage of apoptotic cells [4] | mean number of days for tumor to reach 1000 mm^3 post-treatment ([5]; Control clone 1) [days] | mean number of days for tumor to reach 1000 mm^3 post-treatment ([5]; Control clone 2) [days] | mean number of days for tumor to reach 1000 mm^3 post-treatment ([5]; class III β-tubulin shRNA clone 4) [days] | mean number of days for tumor to reach 1000 mm^3 post-treatment ([5]; class III β-tubulin shRNA clone 59) [days]
27-mer βIII siRNA Sequence-8: 27-mer siRNA to class III β-tubulin, SEQ ID NO: 11 and 12, position 1521-1545 (chain 1 AGACAGAGACAGGAGCAGCUCACACGU; chain 2 GUGUGAGCUGCUCCUGUCUCUGUCT; chemistry not given here) | significantly less colonies |  |  |  |  |  |  |  |  |  |  | 
27-mer βIII siRNA Sequence-11: 27-mer siRNA to class III β-tubulin, SEQ ID NO: 13 and 14, position 1352-1376 (chain 1 UCUCACUCCAGCUGCGAGCAGCUUCAC; chain 2 GAAGCUGCUCGCAGCUGGAGUGAGA; listed as RNA, chemistry not given here) | significantly less colonies | 6 |  |  |  |  |  |  |  |  |  | 
[NH2][Pt]([NH2])([Cl])[Cl] [CDDP, cisplatin] |  |  | (1.06, NS) | (2.42, 0.0002***) | (1.86, 0.001**) | (1.72, 0.0019**) | increased sensitivity | significant increase in the number of apoptotic cells | 13 | 10.8 | 35 | 29.4
